From article PMC10510756 (Chemical Science, 2023)

How the values were obtained:
[1] = tested on: Cy5-SAM-VI RS (RNA, riboswitch) GGCAUUGUGCCUCGCAUUGCACUCCGCGGGGCGAUAAGUCCUGAAAAGGGAUGUC; assay: MST, 5'-Cy5-labelled RNA; details: 100 mM KCl, 25 mM MgCl2; 50 mM Tris-HCl pH 7.5, 25 °C, 20 nM RNA
[2] = tested on: SAM-I RS (RNA, riboswitch) GGCUUAUCAAGAGAGGGGGAGCGACUGGCGCGAAGAACCCCGGCAACCAGAAAUGGUGCCAAUUCCUGCAGCGGAAACGUUGAAAGAUGAGCCG; assay: MST, SybrGold (1x) non-covalent dye; details: 100 mM KCl, 25 mM MgCl2; 50 mM Tris-HCl pH 7.5, 25 °C, 100 nM RNA
[3] = tested on: SAM-VI RS (RNA, riboswitch) GGCAUUGUGCCUCGCAUUGCACUCCGCGGGGCGAUAAGUCCUGAAAAGGGAUGUC; assay: MST, SybrGold (1x) non-covalent dye; details: 100 mM KCl, 25 mM MgCl2; 50 mM Tris-HCl pH 7.5, 25 °C, 100 nM RNA
[4] = tested on: Neomycin aptamer (RNA, aptamer) GGCUGCUUGUCCUUUAAUGGUCCAGUC; assay: MST, Syto 59 (1x) non-covalent dye; details: 100 mM KCl, 25 mM MgCl2; 50 mM Tris-HCl pH 7.5, 25 °C, 100 nM RNA; apparent; below tight-binding limit
[5] = tested on: PreQ1 RS (RNA, riboswitch) GGAGAGGUUCUAGCUACACCUCUAUAAAAAACUAA; assay: MST, SybrGold (1x) non-covalent dye; details: 100 mM KCl, 25 mM MgCl2; 50 mM Tris-HCl pH 7.5, 25 °C, 100 nM RNA; apparent; near tight-binding limit
METTL3/14 = METTL3/14 (Homo sapiens, UniProt Q86U44)
Chain of METTL3/14 (Q86U44 2-580): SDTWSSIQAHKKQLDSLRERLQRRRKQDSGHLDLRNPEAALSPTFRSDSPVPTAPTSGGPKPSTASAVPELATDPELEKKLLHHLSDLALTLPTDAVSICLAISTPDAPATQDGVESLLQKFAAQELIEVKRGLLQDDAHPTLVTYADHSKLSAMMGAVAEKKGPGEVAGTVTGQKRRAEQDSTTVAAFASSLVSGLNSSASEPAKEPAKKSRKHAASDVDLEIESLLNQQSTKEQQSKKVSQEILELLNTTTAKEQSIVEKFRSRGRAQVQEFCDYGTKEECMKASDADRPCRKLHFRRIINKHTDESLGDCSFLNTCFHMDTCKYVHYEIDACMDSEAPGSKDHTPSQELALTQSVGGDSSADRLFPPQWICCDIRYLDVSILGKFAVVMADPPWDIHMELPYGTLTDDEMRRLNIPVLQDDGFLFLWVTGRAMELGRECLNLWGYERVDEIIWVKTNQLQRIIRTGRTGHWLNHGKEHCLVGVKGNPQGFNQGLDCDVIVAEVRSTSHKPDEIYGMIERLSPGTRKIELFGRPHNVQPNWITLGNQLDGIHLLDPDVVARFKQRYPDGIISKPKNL
Chain of METTL3/14 (Q9HCE5 whole entry partner): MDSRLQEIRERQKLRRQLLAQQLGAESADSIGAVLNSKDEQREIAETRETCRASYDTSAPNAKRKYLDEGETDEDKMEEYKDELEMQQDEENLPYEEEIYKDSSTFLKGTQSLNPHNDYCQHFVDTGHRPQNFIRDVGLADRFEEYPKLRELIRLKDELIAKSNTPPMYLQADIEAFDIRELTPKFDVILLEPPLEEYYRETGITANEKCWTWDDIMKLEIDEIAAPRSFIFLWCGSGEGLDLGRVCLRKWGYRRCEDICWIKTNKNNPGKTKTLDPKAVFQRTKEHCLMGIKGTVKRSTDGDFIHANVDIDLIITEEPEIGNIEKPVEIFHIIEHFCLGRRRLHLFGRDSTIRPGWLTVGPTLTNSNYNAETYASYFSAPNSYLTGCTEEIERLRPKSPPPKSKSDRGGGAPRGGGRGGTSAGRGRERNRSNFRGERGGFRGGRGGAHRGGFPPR

KD [1] | KD [2] | KD [3] | SMILES | further results
699 ± 185 nM | 157 nM | 953 nM | C[S+](CC[C@H](N)C(=O)O)C[C@H]1O[C@@H](n2cnc3c(N)ncnc32)[C@H](O)[C@@H]1O (stereo partly drawn) | –
– | – | – | NC[C@@H]1O[C@H](O[C@H]2[C@@H](O)[C@H](O[C@@H]3[C@@H](O)[C@H](N)C[C@H](N)[C@H]3O[C@H]3O[C@H](CN)[C@@H](O)[C@H](O)[C@H]3N)O[C@@H]2CO)[C@H](N)[C@@H](O)[C@@H]1O | KD,app [4]: 29.6 nM
– | – | – | NCc1c[nH]c2nc(N)[nH]c(=O)c12 | KD,app [5]: 44.8 nM
23600 ± 7000 nM | 137000 nM | 10000 nM | Nc1ncnc2c1ncn2[C@@H]1O[C@H](CSCC[C@H](N)C(=O)O)[C@@H](O)[C@H]1O | –
– | – | – | C[S+](CC[C@H](N)C(=O)[O-])C[C@H]1O[C@@H](n2cnc3c(N)ncnc32)[C@H](O)[C@@H]1O (stereo partly drawn) [S-adenosylmethionine] | Km (METTL3/14): 0.226 µM
